In PubChem BioAssay (NCI):
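96-well plates; 48 h exposure; 5 concentrations. Endpoints by linear interpolation between flanking doses. Not reached: highest tested concentration assigned. At the GI50, growth is halved. TGI marks complete inhibition of growth.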

How the values were obtained:
Assay in all cases: NCI tumour cell line growth inhibition, 48 h
NCI-H460 lung = system: NCI-H460 lung
SK-MEL-5 melanoma = system: SK-MEL-5 melanoma
SF-539 CNS = system: SF-539 CNS
HCT-116 colon = system: HCT-116 colon
MOLT-4 leukemia = system: MOLT-4 leukemia
IGROV1 ovarian = system: IGROV1 ovarian
CAKI-1 renal = system: CAKI-1 renal
HT29 colon = system: HT29 colon
HS 578T breast = system: HS 578T breast
DU-145 prostate = system: DU-145 prostate
BT-549 breast = system: BT-549 breast
K-562 leukemia = system: K-562 leukemia
T-47D breast = system: T-47D breast
COLO 205 colon = system: COLO 205 colon
MALME-3M melanoma = system: MALME-3M melanoma
OVCAR-3 ovarian = system: OVCAR-3 ovarian
EKVX NSCLC = system: EKVX NSCLC
U251 CNS = system: U251 CNS
NCI-H522 lung = system: NCI-H522 lung
PC-3 prostate = system: PC-3 prostate
SW-620 colon = system: SW-620 colon
786-0 renal = system: 786-0 renal
HL-60(TB) leukemia = system: HL-60(TB) leukemia
HCC-2998 colon = system: HCC-2998 colon
SK-OV-3 ovarian = system: SK-OV-3 ovarian
HCT-15 colon = system: HCT-15 colon
SF-268 CNS = system: SF-268 CNS
SNB-19 CNS = system: SNB-19 CNS
SF-295 CNS = system: SF-295 CNS
NCI/ADR-RES ovarian = system: NCI/ADR-RES ovarian
KM12 colon = system: KM12 colon
MDA-MB-435 = system: MDA-MB-435
TK-10 renal = system: TK-10 renal
UACC-257 melanoma = system: UACC-257 melanoma
OVCAR-8 ovarian = system: OVCAR-8 ovarian
LOX IMVI melanoma = system: LOX IMVI melanoma
HOP-92 NSCLC = system: HOP-92 NSCLC
OVCAR-5 ovarian = system: OVCAR-5 ovarian
NCI-H226 lung = system: NCI-H226 lung
NCI-H23 lung = system: NCI-H23 lung
M14 melanoma = system: M14 melanoma
SK-MEL-28 melanoma = system: SK-MEL-28 melanoma
A549 NSCLC = system: A549 NSCLC
ACHN renal = system: ACHN renal
SR leukemia = system: SR leukemia
SN12C renal = system: SN12C renal
MCF7 breast = system: MCF7 breast
RXF 393 renal = system: RXF 393 renal
HOP-62 NSCLC = system: HOP-62 NSCLC
OVCAR-4 ovarian = system: OVCAR-4 ovarian
RPMI-8226 leukemia = system: RPMI-8226 leukemia
UACC-62 melanoma = system: UACC-62 melanoma
CCRF-CEM leukemia = system: CCRF-CEM leukemia
A498 renal = system: A498 renal
MDA-MB-468 breast = system: MDA-MB-468 breast

In the case of `CS(=O)(=O)Nc1ccc(-c2ccc3c(c2)ncn3-c2ccc(NC(=O)Nc3ccc(Br)cc3)cc2)cc1`, the GI50 (NCI-H460 lung) is reported as 2.64 µM, the TGI (NCI-H460 lung) is reported as > 72.3 µM and the GI50 (SK-MEL-5 melanoma) is reported as 2.35 µM. The TGI (SK-MEL-5 melanoma) was 7.81 µM, the GI50 (SF-539 CNS) was 0.83 µM and the TGI (SF-539 CNS) was 7.64 µM. The GI50 (HCT-116 colon) was 2.33 µM, the TGI (HCT-116 colon) was > 72.3 µM and the GI50 (MOLT-4 leukemia) was 1.37 µM. For the same compound, the TGI (MOLT-4 leukemia) was 4.31 µM, the GI50 (IGROV1 ovarian) was 3.17 µM and the TGI (IGROV1 ovarian) was > 72.3 µM. The GI50 (CAKI-1 renal) was 6 µM, the TGI (CAKI-1 renal) was > 72.3 µM and the GI50 (HT29 colon) was 2.43 µM. The TGI (HT29 colon) was > 72.3 µM, the GI50 (HS 578T breast) was 2.42 µM and the TGI (HS 578T breast) was > 72.3 µM. For the same compound, the GI50 (DU-145 prostate) was 3.36 µM, the TGI (DU-145 prostate) was > 72.3 µM and the GI50 (BT-549 breast) was 2.64 µM. It also gave a TGI (BT-549 breast) of 12.8 µM, a GI50 (K-562 leukemia) of 1.88 µM and a TGI (K-562 leukemia) of 4.91 µM. The GI50 (T-47D breast) was 2.75 µM, the TGI (T-47D breast) was > 72.3 µM and the GI50 (COLO 205 colon) was 2.59 µM. For the same compound, the TGI (COLO 205 colon) was > 72.3 µM, the GI50 (MALME-3M melanoma) was 1.95 µM and the TGI (MALME-3M melanoma) was 5.94 µM. For the same compound, the GI50 (OVCAR-3 ovarian) was 2.76 µM, the TGI (OVCAR-3 ovarian) was > 72.3 µM and the GI50 (EKVX NSCLC) was 2.4 µM. The TGI (EKVX NSCLC) was > 72.3 µM, the GI50 (U251 CNS) was 2.4 µM and the TGI (U251 CNS) was > 72.3 µM. The GI50 (NCI-H522 lung) was 2.11 µM, the TGI (NCI-H522 lung) was 31.2 µM and the GI50 (PC-3 prostate) was 2.69 µM. For the same compound, the TGI (PC-3 prostate) was > 72.3 µM, the GI50 (SW-620 colon) was 3.05 µM and the TGI (SW-620 colon) was > 72.3 µM. For the same compound, the GI50 (786-0 renal) was 2.25 µM, the TGI (786-0 renal) was 16 µM and the GI50 (HL-60(TB) leukemia) was 1.49 µM. For the same compound, the TGI (HL-60(TB) leukemia) was 3.33 µM, the GI50 (HCC-2998 colon) was 3.32 µM and the TGI (HCC-2998 colon) was > 72.3 µM. The GI50 (SK-OV-3 ovarian) was 2.92 µM, the TGI (SK-OV-3 ovarian) was > 72.3 µM and the GI50 (HCT-15 colon) was 2.4 µM. The TGI (HCT-15 colon) was > 72.3 µM, the GI50 (SF-268 CNS) was 3.41 µM and the TGI (SF-268 CNS) was > 72.3 µM. The GI50 (SNB-19 CNS) was 2.57 µM, the TGI (SNB-19 CNS) was > 72.3 µM and the GI50 (SF-295 CNS) was 1.57 µM. The TGI (SF-295 CNS) was 4.41 µM, the GI50 (NCI/ADR-RES ovarian) was 10.8 µM and the TGI (NCI/ADR-RES ovarian) was > 72.3 µM. For the same compound, the GI50 (KM12 colon) was 0.336 µM, the TGI (KM12 colon) was > 72.3 µM and the GI50 (MDA-MB-435) was 2.62 µM. For the same compound, the TGI (MDA-MB-435) was > 72.3 µM, the GI50 (TK-10 renal) was 3.32 µM and the TGI (TK-10 renal) was > 72.3 µM. The GI50 (UACC-257 melanoma) was 2.17 µM, the TGI (UACC-257 melanoma) was 7.89 µM and the GI50 (OVCAR-8 ovarian) was 2.81 µM. For the same compound, the TGI (OVCAR-8 ovarian) was > 72.3 µM, the GI50 (LOX IMVI melanoma) was 2.64 µM and the TGI (LOX IMVI melanoma) was 44.3 µM. For the same compound, the GI50 (HOP-92 NSCLC) was 3.39 µM, the TGI (HOP-92 NSCLC) was > 72.3 µM and the GI50 (OVCAR-5 ovarian) was 3.4 µM. The TGI (OVCAR-5 ovarian) was > 72.3 µM, the GI50 (NCI-H226 lung) was 3.08 µM and the TGI (NCI-H226 lung) was > 72.3 µM. For the same compound, the GI50 (NCI-H23 lung) was 2.57 µM, the TGI (NCI-H23 lung) was > 72.3 µM and the GI50 (M14 melanoma) was 2.36 µM. The TGI (M14 melanoma) was > 72.3 µM, the GI50 (SK-MEL-28 melanoma) was 2.18 µM and the TGI (SK-MEL-28 melanoma) was > 72.3 µM. The GI50 (A549 NSCLC) was 2.44 µM, the TGI (A549 NSCLC) was > 72.3 µM and the GI50 (ACHN renal) was 2.55 µM. For the same compound, the TGI (ACHN renal) was 12.3 µM, the GI50 (SR leukemia) was 1.39 µM and the TGI (SR leukemia) was 3.47 µM. The GI50 (SN12C renal) was 2.37 µM, the TGI (SN12C renal) was > 72.3 µM and the GI50 (MCF7 breast) was 1.81 µM. The TGI (MCF7 breast) was 7.89 µM, the GI50 (RXF 393 renal) was 1.16 µM and the TGI (RXF 393 renal) was 4.56 µM. It also gave a GI50 (HOP-62 NSCLC) of 2.54 µM, a TGI (HOP-62 NSCLC) of 13 µM and a GI50 (OVCAR-4 ovarian) of 3.13 µM. The TGI (OVCAR-4 ovarian) was > 72.3 µM, the GI50 (RPMI-8226 leukemia) was 1.52 µM and the TGI (RPMI-8226 leukemia) was 3.85 µM. The GI50 (UACC-62 melanoma) was 2.25 µM, the TGI (UACC-62 melanoma) was 9.2 µM and the GI50 (CCRF-CEM leukemia) was 2.12 µM. The TGI (CCRF-CEM leukemia) was 7.23 µM, the GI50 (A498 renal) was 3.42 µM and the TGI (A498 renal) was 21.5 µM. For the same compound, the GI50 (MDA-MB-468 breast) was 2.26 µM and the TGI (MDA-MB-468 breast) was 10.9 µM.

`CCCCc1nc2cc(/C=C/C(=O)NO)ccc2n1CCN(CC)CC` showed a GI50 (MDA-MB-468 breast) of 0.177 µM and a TGI (MDA-MB-468 breast) of 1.91 µM.

In the case of `NC(N)=Nc1ccc(Oc2ccc(Nc3ccc(Cl)c(C(F)(F)F)c3)cc2)cc1`, the GI50 (MDA-MB-468 breast) is reported as 1.55 µM and the TGI (MDA-MB-468 breast) is reported as 3.39 µM.

In the case of `COC1CCC(n2c([C@@H]3CCCC(=O)N3c3ccc(F)c(F)c3)nc3cc(-c4c(C)noc4C)ccc32)CC1` (some centres undefined), the GI50 (MDA-MB-468 breast) is reported as 3.95 µM and the TGI (MDA-MB-468 breast) is reported as 28.4 µM.

Work on `CC(C)(C)n1cc(-c2ccnc(NCCNS(=O)(=O)c3cccc4ccccc34)c2)c(-c2cccc(F)c2)n1` yielded a GI50 (MDA-MB-468 breast) of 11 µM and a TGI (MDA-MB-468 breast) of 33.6 µM.

`COc1cc(C2c3cc4c(cc3OC(N3CCOCC3)C2C)OCO4)cc(OC)c1OC(C)=O` (centres undefined) was tested, and the GI50 (MDA-MB-468 breast) was 20 µM and the TGI (MDA-MB-468 breast) was > 100 µM.

`COc1cccc(C2C(C#N)=C(N)Oc3cc(OC)ccc32)c1` (centres undefined) was tested, and the GI50 (MDA-MB-468 breast) was 0.0322 µM and the TGI (MDA-MB-468 breast) was > 60 µM.

`COC(=O)[C@]12CC[C@@H](C)[C@H](C)[C@@H]1C1=CC[C@@H]3[C@@]4(C)C=C(O)C(=O)C(C)=C4CC[C@@]3(C)[C@]1(C)CC2` was tested, and the GI50 (MDA-MB-468 breast) was 9.95 µM and the TGI (MDA-MB-468 breast) was 26.9 µM.

`CC(C)[C@@H](CS(=O)(=O)C(C)C)N1C(=O)[C@@](C)(CC(=O)O)C[C@H](c2cccc(Cl)c2)[C@H]1c1ccc(Cl)cc1` gave a GI50 (MDA-MB-468 breast) of 11.6 µM and a TGI (MDA-MB-468 breast) of 45 µM.

With `Nc1nc(Nc2ccc3c(c2)CCC(N2CCCC2)CC3)nn1-c1cc2c(nn1)-c1ccccc1CCC2` (centres undefined) the GI50 (MDA-MB-468 breast) was 1.4 µM and the TGI (MDA-MB-468 breast) was 2.9 µM.

In the case of `COc1ccc(-c2nn(-c3cccc(NC(=O)Nc4cccc(C(F)(F)F)c4)c3)cc2-c2ccncc2)cc1Cl`, the GI50 (MDA-MB-468 breast) is reported as 1.54 µM and the TGI (MDA-MB-468 breast) is reported as 6.47 µM.

For `CC(=O)OC1=C2C(CC3C4CC=C5CC(OC(C)=O)CCC5(C)C4CCC23C)C2C(=O)N(Cc3ccccc3)C(=O)C2C1` (centres undefined), the GI50 (MDA-MB-468 breast) was 2.84 µM and the TGI (MDA-MB-468 breast) was 14.9 µM.

Work on `CN1CCN(c2cc(Nc3cc(C4CC4)[nH]n3)nc(Nc3ccc(CC(=O)NCc4cccc(F)c4)cc3)n2)CC1` yielded a GI50 (MDA-MB-468 breast) of 2.6 µM and a TGI (MDA-MB-468 breast) of 16.7 µM.
